# Where a SMILES comes first, the peptide text is derived from it.
# Legend:
# HOG cells [1] = test: Targeted LC-MS/MS of NAA and NAAG in HOG cells incubated with NAA or NAAG media; type: cell-based, human
# Protocol: Targeted mass LC-MS/MS. Simultaneous quantification of NAA and NAAG in cell culture media, cell lysates, and tissues was done by liquid chromatography-electrospray ionization-tandem mass spectrometry (LC-ESI-MS/MS).
# Sample preparation. Media above the cells and cell lysates: To 20 μL of sample 40 μL of ice-cold methanol was added, mixture vigorously agitated (FastPrep, Qbiogene, Carlsbad, Calif. 20 s, speed 6), left at −20° C. for 15 min, agitated again (same cond.), centrifuged at 16,000 g for 5 min, and 50 μL of supernatant dried by vacuum centrifuge (50° C., 1 hr, SpeedVac, Thermo Scientific, West Palm Beach, Fla.). The dry residue was dissolved by 50 μL of mobile phase A (see below) and 10 μL injected into LC-MS/MS system. Tissue samples: To […] sample of wet tissue, 300 μL of deionized water and one 4 mm ceramic bead was added in 2-mL polypropylene tube and vigorously agitated (FastPrep, 20 s, speed 4, 2 cycles). A 50 μL aliquot of the homogenate was pipetted out for total protein measurement (for tissue mass normalization purpose) and 500 μL methanol added to the original vial which was again agitated (FastPrep, same conditions), left at −20° C. for 15 min, centrifuged at 16,000 g for 5 min, and 650 μL of supernatant dried by vacuum centrifuge (SpeedVac, 50° C., 1.5 hr). The dry residue was dissolved by 50 μL of mobile phase A (see below) and 10 μL injected into LC-MS/MS system.
# LC-MS/MS analysis. Equipment: Agilent 1200 series HPLC (Santa Clara, Calif.) and Sciex/Applied Biosystems API 3200 QTrap (Carlsbad, Calif.). Mobile phase A: water, 3% methanol; mobile phase B: acetonitrile/methanol, 1/1. Analytical column: Kinetex C18, 150×4.6 mm, 2.6 μm, and SafeGuard C18 4×3 mm guard-column from Phenomenex (Torrance, Calif.). Column temperature: 45° C. Elution gradient at 1 mL/min flow rate: 0-1 min 0% B, 1-2 min 0-80% B, 2-3.5 min 80% B, 3.5-4 min 80-0% B, 4-10 min 0% B. Injection volume: 10 μL. The Q1/Q3 (m/z) transitions monitored in positive electrospray ionization mode: 176/158 (NAA, quantification), 176/134 (NAA, confirmation), 305/148 (NAAG, quantification), 305/130 (NAAG, confirmation).
# Calibration. A set of calibrator samples in corresponding matrix was prepared for calibration by adding appropriate amounts of pure NAA and NAAG at the following concentration levels: 0, 0.01, 0.05, 0.25, 1.25, and 6.25 μg/mL. These samples were analyzed alongside the experimental samples and accuracy acceptance criteria was 85% for each but the lowest level (0.01 μg/mL, 80%). The limit of quantification (at 80% accuracy criterion) was determined to be 10 ng/ml for both NAA and NAAG. Samples in which NAA or NAAG was not detected were assigned to have a value of 0 NAA or NAAG (FIG. 5A,B). Statistically significant differences that we reported (FIG. 5A,B) were still significant when 10 ng/ml was assigned for samples in which NAA or NAAG was not detected. Quadratic least squares regression curve fit was employed to account for slight but predictable nonlinearity (ESI of highly polar analytes) with 1/x weighing factor. The addition of methanol to the sample matrix is shared with a recently reported NAAG analysis method (32). Otherwise this procedure is, to the best of our knowledge, novel.
# Univariate statistics. Welch's t-test was used to determine whether mean levels of a biochemical in one experimental group were different from mean levels in another group. […]
# HOG cells [2] = test: Metabolomic profiling (LC-MS, GC-MS) of HOG cell lysates after 2HG treatment or IDH1 shRNA expression; type: cell-based, human; details: for number of biochemicals with altered levels: 72 hours, HOG cells vs vector, p<0.05
# Source text: Cell lines. HOG cells were derived from a human WHO grade III anaplastic oligodendroglioma (28) and previously found not to contain exon 4 IDH1 or exon 4 IDH2 mutations (8). The HOG cell line was kindly donated by Dr. A. T. Campagnoni at UCLA. To express IDH1 and IDH2 transgenes in cells, IDH1 and IDH2 cDNAs, or cDNAs mutagenized to IDH1-R132H or IDH2-R172K, were cloned into pLenti6.2/V5 (Invitrogen, Carlsbad, Calif.). Viruses were created using these constructs in 293FT cells and these were used to transduce cells derived from the same parental pool of HOG cells for 24 h. Cells derived from the same clone were reasoned to have homogenous IDH transgene expression levels and metabolic profiles compared to pools of cells or transiently transfected cells, facilitating the identification of metabolites that have altered levels in different clones. Virus was replaced by fresh media for 48 hours and then stable clones were selected from single-cell dilutions in 5 μg/ml blasticidin for 3 weeks. Stable HOG cell lines containing IDH1 shRNA or control were constructed by transfecting HOG cells with pSuperRetro vector (OligoEngine, Seattle, Wash.) containing IDH1-specific hairpin or a scrambled sequence (5′-cat aac gag cgg aag aac g-3′). The IDH1-specific hairpin was created using the primers 5′-gat ccc cGG GAA GTT CTG GTG TCA Tat tca aga gaT ATG ACA CCA GAA CTT CCC ttt ttg gaa a-3′ and 5′-agc ttt tcc aaa aaG GGA AGT TCT GGT GTC ATA tct ctt gaa TAT GAC ACC AGA ACT TCC Cgg g-3′, with capital letters representing bases homologous to IDH1 sequence. Clones were selected with 500 μg/ml G418 for 3 weeks and expanded after single cell dilution. Percent knockdown was determined by ImageJ (v1.43, available at http://rsbweb.nih.gov/ij/, developed by Wayne Rasband, National Institutes of Health, Bethesda, Md.) analysis of the intensity of immunoblot anti-IDH1 bands, normalized to the intensity of anti-GAPDH internal control bands (FIG. S4A). The same clone of vector, IDH1-WT, and IDH1-R132H HOG cells were used in all experiments.
# 2HG synthesis. 2HG was synthesized by treatment of D-glutamate (Sigma-Aldrich, St. Louis, Mo.) with nitrous acid to form a lactone, which was then hydrolyzed with NaOH solution to form 2-D-hydroxyl glutarate. Purity was 93%. Powder was resuspended in PBS and filtered through a 0.22 μm filter using sterile technique for treatment of cells.
# Metabolomic analysis. Cell line treatment: Cells were grown under respective experimental conditions in IMDM media (Gibco, Invitrogen, Carlsbad, Calif.) supplemented with 10% FBS. For the experiment in FIG. 2, cells were grown in a media mix that also contained either 10% PBS or 10% of a 300 mM or 75 mM 2HG solution in PBS for a final 30 mM or 7.5 mM 2HG. Cells were seeded into flasks three days before harvesting. To harvest cells, media was removed, monolayers were washed with PBS, and 0.05% trypsin/EDTA was added. Cells were incubated for 20 min at 37° C. or until cells detached. Two volumes of media were added to the Trypsin/cell mix and suspended by gentle pipetting and triteration. Cells were counted, and 10^7 cells per sample were spun down at 1000 rpm×3 min in a polystyrene tube. Cells were washed twice with PBS and then snap-frozen on dry ice and stored at −80° C. until analysis.
# Metabolite analysis: Metabolomic profiling analysis of all samples was carried out in collaboration with Metabolon (Durham, N.C.) as described previously (29-31), as follows:
# Sample Preparation: The sample preparation process was carried out using the automated MicroLabSTAR® system (Hamilton Company, Reno, Nev.). Recovery standards were added prior to the first step in the extraction process for QC purposes. Sample preparation was conducted using a proprietary series of organic and aqueous extractions to remove the protein fraction while allowing maximum recovery of small molecules. The resulting extract was divided into two fractions; one for analysis by LC and one for analysis by GC. […]
# [3] = system: complex V (ATP synthase) of the mitochondrial electron transport chain; details: chick neurons; reference 27; cited from earlier work
# [4] = 30 mM 2HG-treated HOG cells vs vector, p<0.001
smiles,measurement,setting,value
"CC(=O)N[C@@H](CC(=O)O)C(=O)O [NAA, N-acetyl-aspartate]",level of NAA in IDH1-R132H expressing cells,"HOG cells [1]; HOG IDH1-R132H cells, 100 μM NAA media, 48 hours",increased the level of NAA in IDH1-R132H expressing cells to the normal level of NAA in the vector control
same,intracellular NAA levels compared to controls,"HOG cells [1]; HOG cells in media containing 100 μM NAA, 48 hours",higher
same,NAAG in HOG cells expressing IDH1-R132H,"HOG cells [1]; after NAA treatment (100 μM NAA media, 48 hours)",did not increase
"O=C(O)CC[C@@H](O)C(=O)O [2HG, 2-D-hydroxyl glutarate]",number of biochemicals with altered levels,HOG cells [2]; 7.5 mM 2HG,117
same,2HG elevation (intracellular),"HOG cells [2]; 30 mM 2HG group, HOG lysate vs vector, p<0.001",54 fold
same,number of biochemicals with altered levels,HOG cells [2]; 30 mM 2HG,130
same,reduced and oxidized glutathione,HOG cells [2]; 30 mM 2HG-treated HOG cells vs vector,not significantly affected
same,α-ketoglutarate higher,"HOG cells [2]; 30 mM 2HG-treated HOG cells vs vector, non-significant, p=0.10",1.3 fold
same,N-acetyl-aspartate (NAA) lower,"HOG cells [2]; 30 mM 2HG-treated HOG cells vs vector, not significantly changed, p=0.38",1.1 fold
same,GPC higher,HOG cells [2]; [4],3.0 fold
same,NAAG lower,HOG cells [2]; [4],1.8 fold
same,choline phosphate lower,HOG cells [2]; [4],100 fold
same,glutamate increased,"HOG cells [2]; 30 mM 2HG-treated HOG cells vs vector, p=0.002",1.4 fold
same,effect on complex V (ATP synthase),[3],impair
"CC(=O)N[C@@H](CC(=O)O)C(=O)N[C@@H](CCC(=O)O)C(=O)O [NAAG, N-acetyl-aspartyl-glutamate] (Ac-Asp-Glu-OH)",NAA levels in NAAG-treated cells,"HOG cells [1]; 10 μM NAAG, all groups (vector, IDH1-WT, IDH1-R132H)",modestly increased
same,intracellular NAAG levels compared to the no treatment group,"HOG cells [1]; HOG cells treated with 10 μM NAAG, 48 hours",increased

# Reference: US20120202883A1, “EFFECTS OF IDH1 AND IDH2 MUTATIONS ON THE CELLULAR METABOLOME” (DUKE UNIVERSITY, priority 2011, published 2012)
